Experimental data as given in a melting point compilation (Tetko et al.; mined from patent text by program, amines drawn as free bases though some values may be those of a salt).

Compound	melting point [°C]
COC(=O)CCCCCCC(=O)Nc1ccc(C(=O)NN=C2C(=O)Nc3ccc(I)cc32)cc1	268
OCc1cc(CO)n(C(c2ccccc2)(c2ccccc2)c2ccccc2)n1	180 to 182
CC1NC(=O)NN=C1c1ccc(S(N)(=O)=O)cc1 (stereo unspecified)	259 to 264
CC1CN(c2c(F)cc3c(=O)c(C(=O)O)cn(C4CC4)c3c2Cl)CC1CN (stereo unspecified)	235 to 238
CC(C)(C)[C@H]1N(c2ccc(C#N)c3ccccc23)C(=O)[C@@H]2C[C@@H](OCc3ccccc3)CN21	155 to 157
CC(C)(C)C(=O)N1CCN(c2ccc(C(=O)CSc3ccnc4ccccc34)cc2)CC1	174 to 176
CC1CCc2ccc(NC(=O)C(F)(F)F)c3c(=O)c(C(=O)O)cn1c23 (stereo unspecified)	301 to 303
COc1ccc2[nH]cc(/C(C#N)=C/c3ccn(C)n3)c2c1	178
FC(F)(F)c1cc(CO[C@H]2CCCN(Cc3nsc(I)n3)[C@H]2c2ccccc2)cc(C(F)(F)F)c1	98 to 101
CC#CCOc1ccc(S(=O)C(C(=O)NO)C2CCCCC2)cc1 (stereo unspecified)	188
C=CCN1C(=O)COc2cc(Br)c(F)cc21	92
CC(C)(CO)C(O)C(=O)NCc1cccnc1 (stereo unspecified)	120 to 122
Oc1ccc(N=C2SCS2)cc1	162 to 163
CCC(Oc1ccccc1)C(=O)NCCO[N+](=O)[O-] (stereo unspecified)	59 to 61
CN1CC=C(c2cn(-c3cccnc3)c3ccc([N+](=O)[O-])cc23)CC1	175 to 177
COc1ccc(N2CCN(c3c(C)c(C)c4c(c3C)C(O)(c3ccc(-c5ccccc5)cc3)C(C)(C)O4)CC2)cc1 (stereo unspecified)	182 to 184
COC(=O)C(Cl)=Cc1ccc(OC)cc1	68 to 70
CCc1c(O)ccc2c1CCCC2	94 to 95
CCOC(=O)Cc1n[nH]c(=O)c2c(C)cccc12	197 to 199
COCc1nc(C(=O)OC)c(C(=O)OC)n1Cc1ccc([N+](=O)[O-])cc1	107 to 110
COc1ccc(NC(=O)c2ccc(COc3ccc4c(c3)CCC(CCN3CCCCC3)C4)cc2)cc1OC (stereo unspecified)	178 to 180

Compound	melting point [°C]
O=C1CC2(CCCC2)C(O)C(=O)N1CCCCN1CCN(c2ncccn2)CC1 (stereo unspecified)	110
CCC(C)(C)NC(=O)n1nc(C)n(NC)c1=O	98
COC(=O)c1snc(-c2ccc(C#N)cc2)c1C(=O)OC	134 to 135
O=C(O)c1ccc(O)c(I)c1	163
C[C@]1(COc2ccc(N3CCC(COc4ccc(CCl)cc4)CC3)cc2)Cn2cc([N+](=O)[O-])nc2O1	140 to 142
CCCCCCCCC1C=C(Oc2ccc(C(=O)O)o2)C=C2N=C3CCCCC3=C21 (stereo unspecified)	142 to 144
CCCCCCC(C)(Sc1cc(C(C)(C)C)c(O)c(C(C)(C)C)c1)Sc1cc(C(C)(C)C)c(O)c(C(C)(C)C)c1	130 to 133
O=C(Nc1c(F)cc(F)cc1F)N(Cc1ccc2c(c1)Cc1ccccc1-2)C1CCCCC1	162 to 165
CCCCCCCCCCCCSC(=O)CS(=O)(=O)Nc1c(C(C)C)cccc1C(C)C	58 to 60
O=C(NCCN1CCOCC1)c1ccc(-c2ccc3nnn(Cc4ccc5ncccc5c4)c3n2)cc1	146 to 149
C=CCOc1cc(O)c2c(=O)cc(-c3ccc(OC)c(OCC=C)c3)oc2c1	122
CCCCCCCCCCCCCCCCS(=O)(=O)NCCc1ccc(C(=O)O)cc1	168 to 169
CC=CC(=O)Nc1n[nH]c2ccc(C)cc12	218
COC(=O)c1ccccc1OCC(O)CNCCNC(=O)Cc1ccccc1 (stereo unspecified)	114 to 115
O=C(c1ccccc1)c1cc(CN2CCN(c3ccccc3)CC2)on1	100 to 102
c1ccc(C2CC3(CC(c4ccccc4)N2)OCCO3)cc1 (stereo unspecified)	125 to 127
CCCc1cn2cc(C(=O)OC)nc2s1	155 to 156
CC1(C)NC(=S)C1(C)C	117 to 118
CC(=O)C=Cc1ccc2c(c1)OCCO2	80
CC(C)(C)OC(=O)CCC1CCC(N)CC1 (stereo unspecified)	39 to 40
CCOC(=O)C1=C(C)NC(C)=C(C(=O)OCCC#N)C1c1ccccc1/C=C/C(=O)OC(C)(C)C (stereo unspecified)	168 to 169

Compound	melting point [°C]
O[C@H]1CCC[C@H]1Oc1cccc2onc(OCC3CCN(CC4(O)CCOCC4)CC3)c12 (relative stereo)	141
OCC1OC(n2c(Br)nc3cc(Cl)c(Cl)cc32)CC1O (stereo unspecified)	187 to 188
NC(=O)c1ccccc1CNC(=S)NC(=O)c1ccccc1	147 to 150
O=C1NC(C(=O)NCCO[N+](=O)[O-])C(c2ccco2)S1 (stereo unspecified)	117 to 118
CCOC(=O)[C@@H]1C[C@H](Br)CN1C(=O)OC(C)(C)C	32 to 34
COc1ccc2nc(-c3cc(C)c(OCCO)c(C)c3)n(-c3ccc(Br)cc3)c(=O)c2c1	160 to 162
COCCCS(=O)(=O)NC(=O)CCc1ccc(OC(C)C)cc1Oc1ncc(C(F)(F)F)cc1Cl	114 to 115
O=S1(=O)NCN(C2CC2)c2cccc(Br)c21	189 to 191
CCCCC1N=CC(C=O)(Cc2ccc(C(=O)OC)c3ccccc23)N1 (stereo unspecified)	95.5 to 97
CC(Cl)(Cl)C(NC(=O)c1ccc(C(F)(F)F)cc1)NC(=NC#N)Nc1ccc(Cl)nc1 (stereo unspecified)	210 to 211
Cc1nc(C(=O)N(C)C)c2n1-c1ccc(Cl)cc1C(c1ccccc1)=NC2	173 to 175
CCOC(=O)N1CCCC(Nc2nc3cncnc3n2Cc2ccc(F)cc2)CC1 (stereo unspecified)	157
Cc1nn(-c2ccccn2)c2ncc(C(=O)NC3CCCCC3)c(O)c12	> 300
O=C(O)CCC(=O)Nc1ccc(C(=O)N2CCCCc3ccccc32)cc1	192
Cc1ccc(-c2ccc3c(c2)C=C(C(=O)N[C@H]2CC[C@H](CN(C)C4CCOCC4)CC2)CO3)cc1	141 to 143
O=C1CCc2cc(C(=O)[C@H]3CC[C@H]3C(=O)O)ccc2N1 (relative stereo)	155 to 158
CN(C(=O)Nc1ccccc1CCc1cc(C(C)(C)C)c(O)c(C(C)(C)C)c1)C1CCN(Cc2ccccc2)CC1	144 to 146
CN1CCc2ccc3cc[nH]c3c2CC1	150 to 153
N#Cc1ccc(NC(=S)NCc2ccncc2)cc1	169
CCN(CC)CCCCNc1ncc2c(n1)N(CC)C(=O)N(c1cc(OC)cc(OC)c1)C2	83 to 85
N#Cc1ccc(O)c(NC(=O)C(=O)O)c1	> 300

More lines, now with the values ahead:

melting point [°C]	Compound
193 to 194	COc1cccc(CN2C(=O)C3CCCC3N(C(=O)CN3C(=O)c4ccccc4C3=O)c3ccccc32)c1 (stereo unspecified)
138	COC(=O)c1cncn1C1c2ccccc2C(Br)(Br)C1(C)C (stereo unspecified)
138 to 140	N#Cc1c(Cl)cccc1C=O
242 to 245	Cc1nc2cnc3ccccc3c2[nH]1
165	O=C1O[C@@H](CO)CN1c1ccc2ncccc2c1
158 to 160	N#Cc1cnc2ccsc2c1Oc1ccc(Cl)cc1Cl
94 to 96	O=C1C(=Cc2ccsc2)CCc2cc(OCCc3c[nH]cn3)ccc21
210 to 214	Cc1[nH]c(=S)[nH]c(=O)c1CCc1ccccc1
142	O=C(Nc1nc(C(Cl)(Cl)Cl)ns1)c1ccccc1Cl
145 to 146	COCCOCCOc1cc(OC)c(-c2cccs2)cc1/C=C/C(=O)c1ccc(C(=O)O)cc1
110 to 112	CCOC(=O)c1sc2cc(CO)ccc2c1Sc1cccc(OC)c1
134 to 135	CCOC(=O)c1c(SC)c(N=O)c2ccccn12
133 to 136	CCc1cc(C(=O)c2ccccc2Cl)c(-n2c(C)nnc2CNC(=O)c2cccc(C(=O)O)c2)s1
218	Cc1ccc(C(=O)c2ccc(O)c(CC(=O)O)c2)cc1
238 to 240	Cc1cc2c3c(ccc2cc1Br)OC(=O)C3
> 200	O=c1[nH]c2c(n(O)c1=O)C1=C(CCC(n3ccc(CN4CCN(Cc5ccccc5)CC4)c3)=C1)CC2
167 to 169	Cn1cc(S(C)=O)c(=O)c2sc(-c3ccccc3Cl)cc21 (stereo unspecified)
238 to 242	Cn1ncnc1-n1cc(C(=O)O)c(=O)c2cc(F)c(Cl)nc21
101 to 103	COc1cc(C(=O)C(=O)N2C3CCCC2C(=O)N(CCCCc2ccccc2)C3=O)cc(OC)c1OC

melting point [°C]	Compound
216 to 218	CC1(C)C(=O)Nc2cc(C(=O)Nc3ccc(N)cc3)ccc21
100	CC(=O)c1ccc(-n2cnc(C)c2)cc1
> 250	Nc1ccc(C=C2c3ccccc3CCc3ccccc32)cc1
41 to 44	COc1ccc(-c2sc3ccccc3c2C(=O)c2ccc(OCCN3CCCCC3)cc2)cc1
224 to 226	CCc1noc(-c2cn(-c3ccc(Cl)cn3)cn2)n1
132 to 134	COc1ccc(CC2Cc3cc(C)cnc3C(O)C2)cc1 (single isomer, unassigned; (+))
193 to 196	O=C(c1ccccc1)c1cc(Cl)cc2c(=O)cc[nH]c12
246	O=C1CCC2=C1C(c1cccc(Br)c1)C1=C(CCS1)N2 (stereo unspecified)
160 to 161	CONC(C(C)=O)c1cc(-n2c(=O)cc(C(F)(F)F)n(C)c2=O)ccc1Cl (stereo unspecified)
219 to 220	Cn1c2ccccc2c2nc3c(C=O)cccc3nc21
129 to 130	CCN(C)C(C)C(=O)Nc1cccc2c1C(=O)c1c(NC(=O)C(C)N(C)CC)cccc1C2=O (stereo unspecified)
195 to 197	O=C(Nc1cc2ccccc2oc1=O)c1ccccc1NCc1ccncc1
203 to 205	COc1ccc2c(c1)CC(=O)NC2c1ccccc1Cl (stereo unspecified)
93 to 94	Cn1cc(-c2nsc(Cl)n2)c2ccccc21
233	OCc1cc(-c2cnn3c(C(F)(F)F)cc(-c4ccc(Cl)c(Cl)c4)nc23)ccn1
> 300	CC(=O)Nc1cccc(Nc2ncnc3[nH]cc(C(=O)c4ccccc4C)c23)c1
92	Cc1cc(CBr)nc2ccccc12
218 to 219	COc1ccccc1N1CCN(CCCNC(=O)c2cc(N)cc3c(=O)c(C)c(-c4ccccc4)oc23)CC1
> 230	Cc1cc(C)c(C2C(=O)C(Cc3ccc(Cl)cc3)N(C)C2=O)c(C)c1 (stereo unspecified)
